Key:
APP/PS1 TG mice [1] = assay: Y-maze, prophylactic trial; type: in vivo, mouse; conditions: PO 100 mg/kg/day, 5 to 12 months of age
APP/PS1 TG mice [2] = assay: Morris water maze, prophylactic trial; type: in vivo, mouse; conditions: TG mice
Description: Behavioral tests were performed in the following sequence: Y-maze (day 1), Morris water maze (day 4 to 12) and contextual fear conditioning (day 26 to 27). To reduce stress, contextual fear conditioning was carried out 2 weeks after the Morris water maze task. In the therapeutic trial, APP/PS1 TG mice were treated with KMS88009 (30 mg/kg/day) for 3 months from 9 to 12 months of age. Y-maze tests short-term spatial working memory. Y-maze is a 3-armed (40 L×10 W×12 H cm) horizontal maze in which the arms are symmetrically disposed at 120° angles from each other. Mice were placed at the end of one arm and allowed to move freely through the maze during a 5-min session. Arm entry was considered completed when the hind paws of the mouse were completely placed in the arm. Alternation was defined as successive entries into the 3 arms on overlapping triplet sets. The series of arm entries was recorded via video recorders. The percentage of alternation was defined according to the following equation: % alternation = [(number of alternations)/(total arm entries - 2)] ×100. Mice performing fewer than 7 alternations in 5 min were excluded from the subsequent analysis to accurately determine alternation scores. Morris water maze was used to measure spatial learning and memory. A stainless pool apparatus with a diameter of 120 cm was used. A clear escape platform (circle, 12×12 cm) was located 1.0 cm below (hidden) the water surface containing white nontoxic paint. The temperature of water was kept constant throughout the experiment (21±1°C). The visual cues, for mice to recognize the environment and direction, are placed on the walls around the pool. The training was consisted of 8 consecutive days of testing with 4 trials per day. When a mouse was located on the escape platform, it was permitted to remain on the platform for 15 sec. […] Then the subject was returned to its home cage and allowed to dry up after each trial. The platform location was kept constant and the starting position was varied. Each mouse was placed in the water with their nose pointing toward the wall at one of the starting points in a random manner. During each trial session, the time taken to find the hidden platform (latency) was recorded using a video camera-based Ethovision System (Nodulus, Nertherlands). On the 9th day, each mouse was tested on a probe trial. The platform was removed from pool and the mice were allowed to swim for 60 sec to search. Swimming time was recorded during mice were in the pool quadrant where the platform had been previously located. Mice, which float or jump from platform, were eliminated from the experiment since these responses may be incompatible with the behaviors needed to locate and learn the platform position. In addition, animals with difficulty in swimming were also excluded from this study. Fear conditioning task was measured to test the ability to learn and remember an association between an aversive experience and environmental cues. Contextual fear conditioning evaluation was performed using a fear-conditioning chamber (Courlbourn, USA) equipped with a computer-controlled fear conditioning system (FreActimetrics, USA). On the first day of training, each mouse was placed in the conditioning chamber and left to adjust for 2 min. Fear conditioning test was performed with conditional stimulus (CS) of sound (75 dB) for 20 sec followed by unconditional stimulus (US) of electric foot-shock (0.5 mA) for the last 2 sec in CS. After 1 min, the subject was returned to its home cage. After 24 hr, retention test was performed. […] Freezing response was measured without CS or US. Freezing behavior was defined as the complete absence of any movement except for respiration and heartbeat. Animals with no response to the foot-shock during training were excluded from the analysis. Data analyses including recordings of all behavioral responses were performed by keeping research colleagues blind.

in vitro = conditions: monkey, microsomes

Structure (SMILES) | frequency of spontaneous alternation (Y-maze) (APP/PS1 TG mice [1]) [%] | Latency (hidden platform) (APP/PS1 TG mice [2]; Day 1, dose group +++ (100 mg/kg/day)) [s] | Latency (hidden platform) (APP/PS1 TG mice [2]; Day 2, dose group +++ (100 mg/kg/day)) [s] | Latency (hidden platform) (APP/PS1 TG mice [2]; Day 3, dose group +++ (100 mg/kg/day)) [s] | Latency (hidden platform) (APP/PS1 TG mice [2]; Day 4, dose group +++ (100 mg/kg/day)) [s] | Latency (hidden platform) (APP/PS1 TG mice [2]; Day 5, dose group +++ (100 mg/kg/day)) [s] | Latency (hidden platform) (APP/PS1 TG mice [2]; Day 6, dose group +++ (100 mg/kg/day)) [s] | Latency (hidden platform) (APP/PS1 TG mice [2]; Day 7, dose group +++ (100 mg/kg/day)) [s] | Latency (hidden platform) (APP/PS1 TG mice [2]; Day 8, dose group +++ (100 mg/kg/day)) [s] | half-life at 5 µM (in vitro) [min] | remaining at 1 h, 5 µM (in vitro) [%]
O[C@H]1[C@H](O)[C@@H](O)[C@H](O)[C@@H](O)[C@@H]1O [Scyllo-inositol, reference compound] | 70.0 | 49.1 ± 2.4 | 43.1 ± 2.6 | 44.7 ± 4.2 | 37.5 ± 4.0 | 44.6 ± 3.3 | 39.0 ± 4.3 | 38.4 ± 4.4 | 37.2 ± 4.3 |  | 
C[C@]12CC[C@H]3[C@@H](CCC4=CC(=O)CC[C@@]43C)[C@@H]1CC[C@@H]2O [Testosterone, reference compound] |  |  |  |  |  |  |  |  |  | 23.4 ± 0.5 | 16 ± 0.4

Reference: publication PMC3997483, “Aminostyrylbenzofuran Directly Reduces Oligomeric Amyloid-β and Reverses Cognitive Deficits in Alzheimer Transgenic Mice” (PLoS ONE, 2014)
